Source: US11090395B2, “Composition for cross talk between estrogen receptors and cannabinoid receptors” (SeeCure Taiwan Co., Ltd., priority 2018, dated 2021)

Test system: lymphoma cells (mantle cell lines and DLBCL cell lines)
Assay: In vitro anti-cancer cell viability assay in lymphoma cell lines
Assay type: cell-based
Protocol: Effect of Composition SC-05-L-1 and Composition SC-05-K-1 against lymphoma cells was assessed by using cell viability assays in representative mantle cell lines and diffuse large B-cell lymphoma (DLBCL) cell lines. The cells were treated with increasing concentration of Compound SC-05-L-1 and Compound SC-05-K-1. Representative DLBCL cell lines sensitive or less sensitive to Compound SC-05-L-1 and Compound SC-05-K-1 were compared.

CCN(CC)CCOc1ccc(/C(=C(/CCCOCC(O)CN2CCCNCCNCCCNCC2)c2ccccc2)c2ccccc2)cc1.Cl [SC-05-L-1, (Z)-1-(1,4,8,11-tetraazacyclotetradecan-1-yl)-3-((5-(4-(2-(diethylamino)ethoxy)phenyl)-4,5-diphenylpent-4-en-1-yl)oxy)propan-2-ol hydrochloride salt]
anti-cancer effect against lymphoma cells (increasing concentration (FIG. 7A, 7B)): dose-dependent manner against lymphoma cells
relative toxicity (lymphoma cells, cyclam versus cyclen chelator (FIG. 8A, 8B)): less toxic than Compound SC-05-K-1
